Measured values taken from patent US9446088B2, “Preparation and use of a plant extract from solanum glaucophyllum with an enriched content of 1,25 dihydroxyvitamin D3 glycosides and quercetin glycosides” (HERBONIS AG, priority 2008, dated 2016).

Columns and labels:
[1] = system: Japanese quails (Coturnix japonica) on Vitamin D-deficient diet; assay: Japanese quail eggshell bioassay for vitamin D activity; type: in vivo
Text: From Rambeck et al. (see Rambeck et al, Ann. Nutr. Metab. 30, 9-14, (1986)) it is known that the quail egg shell assay is used as a simple bioassay to assess Vitamin D activity. According to this assay, Japanese quails (Coturnix japonica) of egg laying age and selected for a laying performance of >80% were set on a Vitamin D-deficient diet containing all other nutrients in optimal amounts. After approximately 8 days, the laying performance as the most sensitive marker dropped below 10%. Then, the test animals were randomly divided into groups of 10 animals and the diet was changed to the same diet, but supplemented with the substance to be tested. Laying performance was monitored for 21 days together with other markers of vitamin D-metabolism, such as alkaline phosphatase and calcium in plasma.
In Experiment 1 three groups of quails received 100, 200 and 400 international units of vitamin D3 per kg feed, 5 groups received 2, 8, 32, 128 and […] purified plant extract and one group was given synthetic 1, 25-Dihydroxyvitamin D3 (1 μg/kg feed) and another group received ground dried leaves of Solanum glaucophyllum (1000 mg/kg feed).

[2] = system: commercial broiler chickens; assay: Broiler experiment for leg anomalies (tibial dyschondroplasia); type: in vivo; parameters: dose or concentration left out as unconfirmed; settings: after day 14 of treatment
Procedure: In experiment 2, male one-day old broiler chickens were fed a commercial diet containing 1,000 IUD/kg feed of vitamin D3 ad libitum. […] 76.8 μg 1,25-Dihydroxyvitamin D3 (determined after in vitro hydrolysis of the extract).

| SMILES | Eggshell weight (ESW) per day and animal, days 5-21 ([1]; 1 μg per kg feed) [g] | Average egg weight between day 1 and 21 ([1]; 1.0 μg/kg feed) [g] | Egg weight in % of standard group Vitamin D3 400 IUD/kg feed ([1]; 1.0 μg/kg feed) [%] | Healthy animals. (%) [2] [b %] | Occurrence of TD (%) [2] | Occurrence of other leg anomalies (%) [2] [b %] | Eggshell weight (ESW) per day and animal, days 5-21 ([1]; 100 IUD per kg feed) [g] | Average egg weight between day 1 and 21 ([1]; 100 IUD/kg feed) [g] | Egg weight in % of standard group Vitamin D3 400 IUD/kg feed ([1]; 100 IUD/kg feed) [%] | Eggshell weight (ESW) per day and animal, days 5-21 ([1]; 200 IUD per kg feed) [g] | Average egg weight between day 1 and 21 ([1]; 200 IUD/kg feed) [g] | Egg weight in % of standard group Vitamin D3 400 IUD/kg feed ([1]; 200 IUD/kg feed) [%] | Eggshell weight (ESW) per day and animal, days 5-21 ([1]; 400 IUD per kg feed) [g] | Average egg weight between day 1 and 21 ([1]; 400 IUD/kg feed) [g] | time by which laying performance passed 50% after beginning of treatment ([1]; onset of egg laying) [h] |
| --- | --- | --- | --- | --- | --- | --- | --- | --- | --- | --- | --- | --- | --- | --- | --- |
| C=C1/C(=C\C=C2/CCC[C@]3(C)[C@@H]([C@H](C)CCCC(C)(C)O)CC[C@@H]23)C[C@@H](O)C[C@@H]1O [Synthetic 1,25(OH)2D3, 1,25-dihydroxyvitamin D3] | 0.502 | 10.58 | 99 | 92.9 | 3.55 *b % | 3.55 |  |  |  |  |  |  |  |  |  |
| C=C1CC[C@H](O)C/C1=C/C=C1\CCC[C@]2(C)[C@@H]([C@H](C)CCCC(C)C)CC[C@@H]12 [Vitamin D3, cholecalciferol] |  |  |  |  |  |  | 0.231 | 9.61 | 90 | 0.434 | 10.40 | 97 | 0.738 | 10.70 | 48 to 72 |
